{"source": "patent US20090298857A1", "about": "“Treatment of Neurodegenerative Diseases Through Inhibition of HSP90” (SLOAN-KETTERING INSTITUTE FOR CANCER RESEARCH, priority 2006, published 2009)", "key": {"[1]": {"test_system": "p35 and tau phosphorylation in whole brains", "assay": "Five day PU-DZ8 treatment of nine-month old JNPL3 mice", "type": "in vivo", "excerpt": "Transgenic mice: Transgenic mice, JNPL3 line (59) overexpressing mutant human tau (P301L, 4R0N) were used in this study. Mice were heterozygous and on a mixed hybrid genetic background composed of C57BL/DBA2/SW, as published in ref. 59. These mice develop NFTs in the basal telencephalon, diencephalon, brainstem, and spinal cord, with severe pathology accompanied by degeneration in the spinal cord leading to dystonia, paralysis, and death in mice >12 months in age. Nine month-old male JNPL3 mice (n=2) were treated intraperitoneally with PU-DZ8 or vehicle for 5 days. Mice were sacrificed 12 h after last treatment by cervical dislocation under anesthesia.\nTo further examine the effect of Hsp90 on tau phosphorylation, we used the JNPL3 line of mice expressing mutant (P301L) tau protein (59). Genetic analyses have linked mutations in the tau gene to FTDP-17 (60, 61). Over 20 distinct pathogenic mutations have been identified, with P301L as the most common mutation in tauophaties (33). […] The tau protein in JNPL3 is predominantly human and is phosphorylated at multiple sites: T181 (AT270). S202/T205 (AT8), T212 (AT100), T231 (AT180), S262, S396/S404, S409 and S422 (59, 62). […] The degree of p35 expression translated well into alleviation of phosphorylation. […] However, in mice where effects were more prominent and p35 expression declined to approximately 20% as compared to control, a significant effect on tau phosphorylation at S202/T205 and T212/S214 and a 50% reduction on T231 was observed. We could not detect a significant amount of tau phosphorylation at T181, site found to be hyperphosphorylated in PHF, tangles and neurofilaments (65). Again, whole brain expression of cdk5 was not affected (FIG. 3)."}, "[2]": {"assay": "Assessment of PU-DZ8 brain levels by HPLC/MS/MS", "type": "in vivo, mice", "settings": "75 mg/kg i.p.", "experimental": "Assessment of PU-DZ8 brain levels. Concentrations of compound were determined and quantitated by a MRM mode using a tandem high-performance liquid chromatography-mass/mass spectrometry (HPLC/MS/MS). A weighed piece of brain was rinsed with saline isotonic solution, dried with gauze and then homogenized in mobile phase (acetonitrile (ACN)/0.1% formic acid=1.2/2.8, v/v). Haloperidol was added as internal standard. PU-DZ8 was extracted in methylene chloride, the organic layer was separated, speedily dried under vacuum and reconstituted in the mobile phase. Compound analysis was performed in the API 4000™ LC/MS/MS (Applied Biosystems) which was coupled with a Shimadzu LC system and a 96-well plate autosampler. A Gemini C18 column (5 μ particle size, 50×4.6 mm I.D.) was used for the LC separation. The analyte was eluted under an isocratic condition for 4 min at a flow rate of 0.4 mL/min.\nOne dose of PU-DZ8 (75 mg/kg) was administered intraperitoneally (i.p.) to female mice of 2.5-4 months in age (n=32) and animals were sacrificed in the interval of 0 to 36 h. Both aggregate-free Tau (S1) and insoluble Tau (P3) fractions were prepared from the subcortical and cortical regions of these mice. PU-DZ8 levels in the brain reached 0.35 μg/g (˜700 nM) at 4 h, and the pharmacologically relevant dose was retained for at least 12 h post-administration (0.2 μg/g, ˜390 nM)."}}, "note": "Values joined by “and” are separate entries in the source; they are usually repeats but may differ in a detail not shown here. Identical values can stand only once.", "data": [{"smiles": "CC(C)NCCCn1c(Cc2cc3c(cc2I)OCO3)nc2c(N)nc(F)nc21", "note": "[PU-DZ8]", "values": [{"measurement": "levels of compound in brain", "setting": "[1]; 5 days i.p.", "result": "Pharmacologically relevant levels"}, {"measurement": "whole brain expression of cdk5", "setting": "[1]; 5 days i.p.", "result": "not affected"}, {"measurement": "reduction in p35 levels", "setting": "[1]; 5 days i.p., whole brain", "result": 50, "unit": "%"}, {"measurement": "effect on tau phosphorylation at S202/T205 (Ab AT-8)", "setting": "[1]; at 50% reduction in p35 levels", "result": "approximately similar effect"}, {"measurement": "reduction of phosphorylation on T212/S214 (Ab AT-100)", "setting": "[1]; at 50% reduction in p35 levels", "result": "almost completely"}, {"measurement": "effect on tau phosphorylated at T231 (Ab AT-180)", "setting": "[1]; at a reduction by 50% in p35 expression", "result": "No significant effect"}, {"measurement": "p35 expression as compared to control", "setting": "[1]; mice where effects were more prominent", "result": "approximately 20%"}, {"measurement": "reduction of tau phosphorylation on T231", "setting": "[1]; mice with p35 expression approximately 20% of control", "result": 50, "unit": "%"}, {"measurement": "level in the brain", "setting": "[2]; 4 h", "result": "0.35 μg/g and ~700 nM"}, {"measurement": "level in the brain", "setting": "[2]; 12 h post-administration", "result": "0.2 μg/g and ~390 nM"}]}]}
